Measurements from patent US10568344B2, “Methods of improving animal performance” (Novozymes A/S, priority 2015, dated 2020).
Like-named read-outs stand apart in the source and are kept apart here. Marks after values point to notes of the source that are not given here.

How the values were obtained:
[1] = tested on: Clostridium perfringens DSM756; assay type: cell-based; conditions: for Diameter of clearing zone: lysozymes 100 μg/ml, bacitracin 50 μg/ml
[2] = In vivo broiler trial 1, growth performance; set-up: species or system male broiler chickens (ROSS PM3); conditions: for Improvement of FCR compared to the control diet / Improvement of weight gain compared to the control diet: 10 mg/kg; for FCR / FCR, Relative to C (%) / Feed intake / Feed intake, Relative to C (%) / Weight gain / Weight gain, Relative to C (%): 10 mg/kg feed
[3] = In vivo broiler trial 2, growth performance; set-up: species or system male broiler chickens; conditions: for FCR / FCR, Relative to C (%) / Feed intake / Feed intake, Relative to C (%) / Weight gain / Weight gain, Relative to C (%): 10 mg/kg feed; for Improvement of FCR compared to the control diet / Improvement of weight gain compared to the control diet: 10 mg/kg
Protocol: No additional enzymes (e.g. phytase) were added to the feed. The experimental diets (Starter and Grower) were based on soybean meal, wheat and rye (12%) as main ingredients (Table 6). The diets were formulated to contain 222 g crude protein and 12.5 MJ/kg MEN for the starter period and 204 g crude protein and 12.7 MJ/kg MEN for the grower period.

[4] = In vivo broiler trial 3, growth performance; set-up: species or system male broiler chickens; Motality: unit not given here
Protocol: The in vivo trial was carried out as described in example 7, except the feed was supplemented with the GH25 lysozyme (SEQ ID NO: 1) at 12.5 or 25 mg per kg feed, the GH24 lysozyme (SEQ ID NO: 4) at 12.5 or 25 mg per kg feed or with Avilamycin at an inclusion level of 10 mg/kg. No additional enzymes (e.g. phytase) were added to the feed. The experimental diets (Starter, Grower and Finisher) were based on soybean meal, wheat and rye (12%) as main ingredients (Table 8). The diets were formulated to contain 225 g crude protein and 12.5 MJ/kg MEN for the starter period, 215 g crude protein and 12.8 MJ/kg MEN for the grower period and 205 g crude protein and 13.0 MJ/kg MEN for the finisher period.

[5] = In vivo piglet trial, growth performance; set-up: species or system weaned piglets
Protocol: The trial was performed from Oct. 23 to Dec. 4, 2014 at the Research Center for Animal Nutrition (DSM Nutritional Products France, F-68305 Village-Neuf) according to the official French guidelines for experiments with live animals. One hundred and four castrated male crossbred (Large-White (female)×Redon (male)) weaned piglets having 28 days of age supplied by the commercial farm “[…] du Rhin” located in Balgau (France), were used in a 42-day experiment. The initial bodyweight of the piglets was 7.88±0.675 kg. They were sorted by body weight into 32 groups of 3 or 4 piglets and randomly allotted to each dietary treatment. Each group of animals was placed in one flat-deck cages and allocated to one of the different treatments. Each treatment was replicated with 8 cages using a total of 26 animals (6 cages of 3 animals/treatment and 2 cages of 4 animals/treatment) per treatment. […] Animals were housed in an environmentally controlled room. Room temperature was initially 27° C. and was lowered weekly by about 2° C. until 21-22° C. and relative humidity percentage was 50%. The experimental diets (Pre-Starter and Starter) were fed ad libitum in two feeding phases from day 0 to 14 (phase 1, Pre-starter) and day 14 to 42 (phase 2, Starter). The ingredient composition and the calculated nutrient levels of the experimental diets for phases 1 and 2 are presented in table 11. Both diets were formulated to meet the animals' requirements according NRC (2012) and were fed in pelleted form. Pelleting conditions were at 70° C. for 30 seconds. […] No additional enzymes (e.g. phytase) were added to the feed. […] Appropriate amount of the liquid preparations of lysozyme was diluted in water and sprayed onto the respective pelleted feed to get the final concentrations in the feed corresponding to the different treatments. For procedural balance of all treatments the same volume of water were also sprayed onto the pellets of the control diets. Body weight of the individual animals and feed consumption per pen were recorded on days 14 and 42 of the study. […] The experimental unit was the piglet, except for ADFI and FCR which were measured by cage, and in both cases, treatment was used as class variable. One-factorial ANOVA and Student-Newman-Keuls test was used to assess differences among means in treatment groups.

[6] = tested on: Micrococcus lysodeikticus ATTC No. 4698; test: Lysozyme activity turbidity assay (optical density drop); conditions: pH 6
[7] = tested on: Exiguobacterium undae (DSM14481); test: as above; assay type: biochemical; conditions: pH 6
[8] = Finisher (d 36-42), 10 mg/kg feed
[9] = Grower (d 22-36), 10 mg/kg feed
[10] = Starter (d 1-22), 10 mg/kg feed
[11] = Whole period (d 1-42), 10 mg/kg feed

Bacitracin zinc salt [reference compound]
Diameter of clearing zone ([1]; Experiment 1, 1/2 MHB pH 6): 13 mm
Diameter of clearing zone ([1]; Experiment 1, 1/10 MHB pH 7): 23 mm
Diameter of clearing zone ([1]; Experiment 2, 1/2 MHB pH 6): 11 mm
Diameter of clearing zone ([1]; Experiment 2, 1/10 MHB pH 7): 20 mm

COC[C@H]1O[C@@H](OC2OC[C@@H]3O[C@]4(O[C@H]3[C@H]2OC(=O)C(C)C)O[C@H](C)[C@@](O)(C(C)=O)[C@@H]2OCO[C@H]24)[C@@H](OC)[C@@H](O)[C@@H]1O[C@@H]1O[C@H](C)[C@H](OC)[C@H](O[C@H]2C[C@@]3(C)OC4(C[C@@H](O)[C@H](O[C@H]5C[C@@H](O)[C@H](OC(=O)c6c(C)c(Cl)c(O)c(Cl)c6OC)[C@@H](C)O5)[C@@H](C)O4)O[C@@H]3[C@@H](C)O2)[C@H]1O (stereo partly drawn) [Avilamycin, reference compound]
Improvement of FCR compared to the control diet [2]: 2.3%
FCR ([2]; Grower (d 22-36)): 1.694^abc
FCR, Relative to C (%) ([2]; Grower (d 22-36)): 97.7%
Feed intake ([2]; Grower (d 22-36)): 2976^ab g/b
Feed intake, Relative to C (%) ([2]; Grower (d 22-36)): 97.6%
Weight gain ([2]; Grower (d 22-36)): 1757 g/b
Weight gain, Relative to C (%) ([2]; Grower (d 22-36)): 99.8%
FCR ([2]; Starter (d 1-22)): 1.695^c
FCR, Relative to C (%) ([2]; Starter (d 1-22)): 93.3%
Feed intake ([2]; Starter (d 1-22)): 1943 g/b
Feed intake, Relative to C (%) ([2]; Starter (d 1-22)): 97.4%
Weight gain ([2]; Starter (d 1-22)): 1147 g/b
Weight gain, Relative to C (%) ([2]; Starter (d 1-22)): 104.1%
FCR ([2]; Whole period (d 1-36)): 1.694^bc
FCR, Relative to C (%) ([2]; Whole period (d 1-36)): 96%
Feed intake ([2]; Whole period (d 1-36)): 4918^ab g/b
Feed intake, Relative to C (%) ([2]; Whole period (d 1-36)): 97.5%
Weight gain ([2]; Whole period (d 1-36)): 2903 g/b
Weight gain, Relative to C (%) ([2]; Whole period (d 1-36)): 101.5%
Improvement of FCR compared to the control diet ([2]; day 1 to day 36): 4%
Improvement of weight gain compared to the control diet ([2]; day 1 to day 36): 1.5%
Improvement of weight gain compared to the control diet ([2]; starter period): 4.1%
FCR ([3]; Grower (d 22-36)): 1.621^b
FCR, Relative to C (%) ([3]; Grower (d 22-36)): 94.2%
Feed intake ([3]; Grower (d 22-36)): 2599 g/b
Feed intake, Relative to C (%) ([3]; Grower (d 22-36)): 95.2%
Weight gain ([3]; Grower (d 22-36)): 1605 g/b
Weight gain, Relative to C (%) ([3]; Grower (d 22-36)): 101.2%
FCR ([3]; Starter (d 1-22)): 1.421^a
FCR, Relative to C (%) ([3]; Starter (d 1-22)): 103%
Feed intake ([3]; Starter (d 1-22)): 1517^a g/b
Feed intake, Relative to C (%) ([3]; Starter (d 1-22)): 103.1%
Weight gain ([3]; Starter (d 1-22)): 1070 g/b
Weight gain, Relative to C (%) ([3]; Starter (d 1-22)): 100.2%
FCR ([3]; Whole period (d 1-36)): 1.537^c
FCR, Relative to C (%) ([3]; Whole period (d 1-36)): 97.4%
Feed intake ([3]; Whole period (d 1-36)): 4111 g/b
Feed intake, Relative to C (%) ([3]; Whole period (d 1-36)): 98.1%
Weight gain ([3]; Whole period (d 1-36)): 2675 g/b
Weight gain, Relative to C (%) ([3]; Whole period (d 1-36)): 100.8%
Improvement of FCR compared to the control diet ([3]; day 1 to day 36): 2.6%
Improvement of FCR compared to the control diet ([3]; grower period): 5.8%
Improvement of weight gain compared to the control diet ([3]; grower period): 1.2%
Improvement of FCR compared to the control diet ([3]; starter period): No improvement
Improvement of weight gain compared to the control diet ([3]; starter period): No improvement
FCR [4, 8]: 1.982
FCR, Relative to C (%) [4, 8]: 101.1%
Feed intake [4, 8]: 1460 g/b
Feed intake, Relative to C (%) [4, 8]: 98.2%
Weight gain [4, 8]: 738 g/b
Weight gain, Relative to C (%) [4, 8]: 97.0%
FCR [4, 9]: 1.683
FCR, Relative to C (%) [4, 9]: 97.7%
Feed intake [4, 9]: 2242 g/b
Feed intake, Relative to C (%) [4, 9]: 98.1%
Weight gain [4, 9]: 1334 g/b
Weight gain, Relative to C (%) [4, 9]: 100.4%
FCR [4, 10]: 1.452
FCR, Relative to C (%) [4, 10]: 100.8%
Feed intake [4, 10]: 1593 g/b
Feed intake, Relative to C (%) [4, 10]: 101.0%
Weight gain [4, 10]: 1102 g/b
Weight gain, Relative to C (%) [4, 10]: 100.6%
EPEF [4, 11]: 397
EPEF, Relative to C (%) [4, 11]: 95.0%
FCR [4, 11]: 1.669
FCR, Relative to C (%) [4, 11]: 99.3%
Feed intake [4, 11]: 5312 g/b
Feed intake, Relative to C (%) [4, 11]: 99.3%
Motality [4, 11]: 12.5
Weight gain [4, 11]: 3184 g/b
Weight gain, Relative to C (%) [4, 11]: 99.9%
EPEF worse than NC diet by ([4]; whole period, 10 mg/kg): 5.0%
FCR improvement compared to NC diet ([4]; whole period, 10 mg/kg): 0.7%

O=C(O)c1ccccc1 [VevoVital, benzoic acid]
ADFI, % relative NC ([5]; day 0-14, 5000 mg/kg feed): 98.6%
ADFI, Mean ([5]; day 0-14, 5000 mg/kg feed): 355 g/day
ADWG, % relative NC ([5]; day 0-14, 5000 mg/kg feed): 104.8%
ADWG, Mean ([5]; day 0-14, 5000 mg/kg feed): 304 g/day
FCR, % relative NC ([5]; day 0-14, 5000 mg/kg feed): 94.2%
FCR, Mean ([5]; day 0-14, 5000 mg/kg feed): 1.168^a
ADFI, % relative NC ([5]; day 0-42, 5000 mg/kg feed): 96.6%
ADFI, Mean ([5]; day 0-42, 5000 mg/kg feed): 709^ab g/d
ADWG, % relative NC ([5]; day 0-42, 5000 mg/kg feed): 105.4%
ADWG, Mean ([5]; day 0-42, 5000 mg/kg feed): 526 g/day
EPEF, % relative NC ([5]; day 0-42, 5000 mg/kg feed): 116.2%
EPEF, Mean ([5]; day 0-42, 5000 mg/kg feed): 394
FCR, % relative NC ([5]; day 0-42, 5000 mg/kg feed): 90.4%
FCR, Mean ([5]; day 0-42, 5000 mg/kg feed): 1.342^a
ADFI, % relative NC ([5]; day 14-42, 5000 mg/kg feed): 95.3%
ADFI, Mean ([5]; day 14-42, 5000 mg/kg feed): 886^ab g/d
ADWG, % relative NC ([5]; day 14-42, 5000 mg/kg feed): 105.8%
ADWG, Mean ([5]; day 14-42, 5000 mg/kg feed): 638 g/day
FCR, % relative NC ([5]; day 14-42, 5000 mg/kg feed): 90.5%
FCR, Mean ([5]; day 14-42, 5000 mg/kg feed): 1.398^a
Improvement on FCR compared to the negative control ([5]; overall period (day 0 to day 42), 5000 mg/kg): 9.6%
Improvement of ADWG compared to NC ([5]; pre-starter period, 5000 mg/kg): 4.8%
Improvement to FCR compared to NC ([5]; starter period, day 15 to day 42, 5000 mg/kg): 9.5%
Improvement of ADWG compared to NC ([5]; starter period, 5000 mg/kg): 5.8%
Improvement of ADWG compared to NC ([5]; whole period, 5000 mg/kg): 5.4%

SEQ ID NO: 5: mature amino acid sequence of a wild type GH22 lysozyme from Gallus gallus (hen egg white lysozyme), Sigma 62971 [reference compound]
Inhibition zone ([1]; 1/10 MHB, pH7, both experiments): 9-11 mm
Diameter of clearing zone ([1]; Experiment 1, 1/2 MHB pH 6): 0 mm
Diameter of clearing zone ([1]; Experiment 1, 1/10 MHB pH 7): 11 mm
Diameter of clearing zone ([1]; Experiment 2, 1/2 MHB pH 6): 0 mm
Diameter of clearing zone ([1]; Experiment 2, 1/10 MHB pH 7): 9 mm
Clearing zone diameter ([1]; ½ MHB, pH 6, both experiments): no zone of inhibition
Lysozyme activity as measured by Optical Density Drop [6]: +++ (pH 6)
Lysozyme activity as measured by Optical Density Drop [7]: + (pH 6)
